According to patent US20220079903A1, “COMPOSITIONS AND METHODS FOR TREATING AND PREVENTING ADHESIONS AND ILUES” (Leading Biosciences, Inc., priority 2016, published 2022):
“Also recorded” adds a separate entry of the source.

Test system: abdominal adhesions in a rat model of surgical adhesions
Test: rat model of surgical (abdominal) adhesions, small intestine rubbed with latex glove
Type: in vivo, Wistar rats
Procedure: The objective of the current study was to compare the efficacy of enteral saline, enteral Formula A, lavage tranexamic acid (TXA), and enteral Formula A with lavage TXA to prevent abdominal adhesions in a rat model of surgical adhesions.
The tests were conducted on Wistar rats from Harlan/Charles River. The sample size included 40 animals in total, with a target weight of 350-400 g (males). The rat was selected as the test model since it is accepted by regulatory authorities as a rodent animal model for toxicity studies, and high quality animals are readily available and a large amount of background pathology data is available in this species. […] The model reproducibility provides the ability to observe directional proof of concept data within normal experimental conditions.
Four groups were measured; Group 1 served as the control wherein saline (Baxter, 0.9% sodium chloride IV solution bags) was administered via enteral administration; subjects in Group 2 were exposed to an enteral administration of Formula A; subjects in Group 3 were exposed to a lavage of tranexamic acid (TXA) and saline; and subjects in Group 4 were given enteral administration of Formula A and a lavage of tranexamic acid (TXA) and saline.
Prior to the experiment, the animals were fasted and prepared for the adhesion model according to the schedule: (A) Evening Prior to Experiment—Begin Fasting; (B) Day 1: Hour−2.0—Administration of enteral test article (oral gavage); (C) Day 1: Hour 0.0−Induction of anesthesia with ketamine with a dose of 75 mg/kg, I.M; and (D) Day 1: Hour 0+10 min—induction of surgical adhesion model.
A small skin incision in the midline of the abdomen was made for isolation of small intestine. A length of the small intestine was rubbed gently with a latex glove 10 times. Animals were given abdominal lavage test article immediately after the small intestine was rubbed. Laparotomy was sutured and the animal allowed to recover. During surgery, the animals were kept warm (37° C.) at all times by a temperature therapy pad and vital signs (systemic blood pressure or respiratory rate, body temperature) were monitored at all times during experiment. Leg motion and toe reflexes were monitored for anesthetic level. On day 28—The animals were euthanized and the number and size/thickness of adhesions were quantified.

[1] = vs enteral saline Group 1, 2 side T-test

NC[C@H]1CC[C@H](C(=O)O)CC1 [tranexamic acid (TXA), tranexamic acid]
mean number of adhesions per animal (Wistar rats, day 28, enteral = 4 ml oral gavage 2 hr pre surgery, lavage = 4 ml TXA in saline right after rubbing, saline control 4.10): 0.67
mean severity of adhesions (score) (day 28, score 0-4: 4 = no adhesions, 3 ≤1 mm, 2 >1 mm ≤2 mm, 1 >2 mm, 0 = kinked intestine, saline control 1.60): 3.00
number of adhesions relative to the control (in words) [1]: significantly less adhesions relative to the control; also recorded: significant relative to the control Group 1
severity of adhesions relative to the control (in words) [1]: significantly smaller adhesions in terms of severity relative to the control; also recorded: significant relative to the control Group 1
